What was measured:
LS174T xenografts [1] = assay: Biodistribution with single and repeated dose of clearing agent 12 (Example 7); format: in vivo, mice
Experimental: (§1) LS174T tumor model. The human colon cancer cell line LS174T was obtained from the ATCC and maintained in Eagle's minimal essential medium (Sigma) supplemented with 10% heat inactivated fetal calf serum (Gibco), penicillin (100 U/mL), streptomycin (100 μg/mL) and […] Glutamax. Nude female Balb/C mice (20-25 g body weight, Charles River Laboratories) were inoculated subcutaneously with 5×10^6 cells in 100 μL sterile PBS.
Nude female mice (n=4-6) bearing LS174T xenografts (0.38±0.23 g) were injected ^125I-CC49-TCO (t=0, 100 μg/100 μl per mouse) followed by (a) one 160 μg/100 μl dose of galactose-MSA-tetrazine (12) 48 hours post mAb injection, or (b) two 160 μg/100 μl 12 doses 46 and 48 hours post mAb injection, or (c) two 160 μg/100 μl 12 doses 28 and 48 hours post mAb injection. At 50 hours post mAb injection, the mice received 8.52 μg ^111In-tetrazine and were then sacrificed three hours later, blood was withdrawn by heart puncture and selected organs and tissues were harvested and blotted dry. The blood samples and tissues were weighed, added with 1 mL PBS and the radioactivity was counted in a gamma counter along with standards to determine the % ID/g. The biodistribution data of ^125I-CC49-TCO and ^111In-tetrazine are shown in Table 2 and the ^111In-tetrazine T/organ values are shown in Table 3.

LS174T xenografts [2] = assay: Dual isotope biodistribution with different amounts of clearing agent 12 (Example 6); format: in vivo, mice
Experimental: as §1
Nude female mice (n=3-4) bearing LS174T xenografts (0.32±0.16 g) were injected ^125I-CC49-TCO (t=0, 100 μg/100 μl per mouse) followed by 20-200 μg galactose-MSA-tetrazine (12) dissolved in 100 μl saline solution (t=24 hours) and ^111In-labeled 15 (21.3 μg/75 μl per mouse, t=26 hours). At 29 hours post mAb injection, the mice were sacrificed, blood was withdrawn by heart puncture and selected organs and tissues were harvested and blotted dry. The blood samples and tissues were weighed, added with 1 mL PBS and the radioactivity was counted in a gamma counter along with standards to determine the % ID/g (Table 1).

[3] = without clearing agent, 21.3 μg tetrazine/mouse 24 hours post mAb injection; cited from earlier work
[4] = One dose (a): 12 at 48 h post mAb
[5] = Two doses (b): 12 at 46 and 48 h
[6] = Two doses (c): 12 at 28 and 48 h

## O=C([O-])CN1CCN(CC(=O)[O-])CCN(CC(=O)NCCOCCOCCOCCOCCOCCOCCOCCOCCOCCOCCOCCNC(=O)CCCC(=O)Nc2ccc(-c3nnc(-c4ccccn4)nn3)nc2)CCN(CC(=O)[O-])CC1.[111In+3] [^111In-tetrazine]
LS174T xenografts [1]; [4]
  ^111In-tetrazine T/organ blood: 8.2±4.1
  ^111In-tetrazine T/organ bone: 10.5 ± 6.5
  ^111In-tetrazine T/organ brain: 148.05 ± 61.18
  ^111In-tetrazine T/organ heart: 6.7 ± 1.3
  ^111In-tetrazine T/organ kidney: 2.8 ± 0.3
  ^111In-tetrazine T/organ liver: 10.9 ± 1.7
  ^111In-tetrazine T/organ lung: 3.1 ± 0.5
  ^111In-tetrazine T/organ muscle: 9.2±3.6
  ^111In-tetrazine T/organ spleen: 11.3 ± 3.3
  ^111In-tetrazine in blood: 0.40 ± 0.10 % ID/g
  ^111In-tetrazine in bone: 0.33 ± 0.12 % ID/g
  ^111In-tetrazine in brain: 0.02 ± 0.00 % ID/g
  ^111In-tetrazine in heart: 0.45 ± 0.08 % ID/g
  ^111In-tetrazine in kidney: 1.07 ± 0.10 % ID/g
  ^111In-tetrazine in liver: 0.27 ± 0.04 % ID/g
  ^111In-tetrazine in lung: 0.97 ± 0.17 % ID/g
  ^111In-tetrazine in muscle: 0.35 ± 0.08 % ID/g
  ^111In-tetrazine in spleen: 0.27 ± 0.04 % ID/g
  ^111In-tetrazine in tumor: 2.98 ± 0.51 % ID/g
LS174T xenografts [1]; [5]
  ^111In-tetrazine T/organ blood: 15.2 ± 4.1
  ^111In-tetrazine T/organ bone: 16.7 ± 6.7
  ^111In-tetrazine T/organ brain: 222.2 ± 73.6
  ^111In-tetrazine T/organ heart: 25.6 ± 12.0
  ^111In-tetrazine T/organ kidney: 1.6 ± 0.6
  ^111In-tetrazine T/organ liver: 11.5 ± 3.7
  ^111In-tetrazine T/organ lung: 8.5 ± 4.2
  ^111In-tetrazine T/organ muscle: 19.3 ± 9.2
  ^111In-tetrazine T/organ spleen: 15.1 ± 4.9
  ^111In-tetrazine in blood: 0.10 ± 0.02 % ID/g
  ^111In-tetrazine in bone: 0.10 ± 0.02 % ID/g
  ^111In-tetrazine in brain: 0.01 ± 0.00 % ID/g
  ^111In-tetrazine in heart: 0.07 ± 0.02 % ID/g
  ^111In-tetrazine in kidney: 0.95 ± 0.06 % ID/g
  ^111In-tetrazine in liver: 0.13 ± 0.01 % ID/g
  ^111In-tetrazine in lung: 0.20 ± 0.07 % ID/g
  ^111In-tetrazine in muscle: 0.09 ± 0.03 % ID/g
  ^111In-tetrazine in spleen: 0.10 ± 0.00 % ID/g
  ^111In-tetrazine in tumor: 1.52 ± 0.48 % ID/g
LS174T xenografts [1]; [6]
  ^111In-tetrazine T/organ blood: 89.0±14.3
  ^111In-tetrazine T/organ bone: 93.5 ± 19.7
  ^111In-tetrazine T/organ brain: 750.2 ± 87.5
  ^111In-tetrazine T/organ heart: 82.9 ± 21.3
  ^111In-tetrazine T/organ kidney: 3.7 ± 0.8
  ^111In-tetrazine T/organ liver: 32.3 ± 5.9
  ^111In-tetrazine T/organ lung: 27.9 ± 7.0
  ^111In-tetrazine T/organ muscle: 146.3±30.3
  ^111In-tetrazine T/organ spleen: 42.4 ± 7.7
  ^111In-tetrazine in blood: 0.05 ± 0.00 % ID/g
  ^111In-tetrazine in bone: 0.05 ± 0.01 % ID/g
  ^111In-tetrazine in brain: 0.01 ± 0.00 % ID/g
  ^111In-tetrazine in heart: 0.05 ± 0.01 % ID/g
  ^111In-tetrazine in kidney: 1.18 ± 0.13 % ID/g
  ^111In-tetrazine in liver: 0.13 ± 0.01 % ID/g
  ^111In-tetrazine in lung: 0.16 ± 0.03 % ID/g
  ^111In-tetrazine in muscle: 0.03 ± 0.00 % ID/g
  ^111In-tetrazine in spleen: 0.10 ± 0.01 % ID/g
  ^111In-tetrazine in tumor: 4.30 ± 0.50 % ID/g
LS174T xenografts [2]; 12 dose 20 μg/mouse
  ^111In-tetrazine T/B: 4.5 ± 0.5
  ^111In-tetrazine Tumor: 3.7 ± 0.8 % ID/g
LS174T xenografts [2]; 12 dose 45 μg/mouse
  ^111In-tetrazine T/B: 4.8 ± 0.3
  ^111In-tetrazine Tumor: 4.1 ± 1.3 % ID/g
LS174T xenografts [2]; 12 dose 80 μg/mouse
  ^111In-tetrazine T/B: 9.2 ± 1.6
  ^111In-tetrazine Tumor: 3.8 ± 1.1 % ID/g
LS174T xenografts [2]; 12 dose 120 μg/mouse
  ^111In-tetrazine T/B: 11.5 ± 4.2
  ^111In-tetrazine Tumor: 3.0 ± 0.8 % ID/g
LS174T xenografts [2]; 12 dose 160 μg/mouse
  ^111In-tetrazine T/B: 31.6 ± 10.5
  ^111In-tetrazine Tumor: 5.1 ± 1.4 % ID/g
LS174T xenografts [2]; 12 dose 200 μg/mouse
  ^111In-tetrazine T/B: 19.2 ± 3.0
  ^111In-tetrazine Tumor: 3.6 ± 0.9 % ID/g
[3]
  T/blood ratio: 2.2±0.5
